In paper PMC6390472, “‘Second-generation’ 1,2,3-triazole-based inhibitors of Porphyromonas gingivalis adherence to oral streptococci and biofilm formation” (MedChemComm, 2019):

Key:
[1] = test system: P. gingivalis adherence to S. gordonii; experiment: Biofilm model of P. gingivalis adherence to S. gordonii (confocal, green/red fluorescence ratio); assay type: cell-based, P. gingivalis ATCC33277 / S. gordonii DL-1; conditions: inhibition of P. gingivalis adherence to S. gordonii; concentration that reduced ratio of green to red fluorescence by 50%; tested 0–60 μM
Experimental: (§1) P. gingivalis ATCC33277 was grown in reduced trypticase soy broth (Difco) supplemented with 0.5 percent yeast extract, 1 μg mL^–1 menadione, and 5 μg mL^–1 hemin. Twenty five milliliters of medium were reduced for 24 h under anaerobic conditions by equilibrating in an atmosphere consisting of 10% CO2, 10% H2, and 80% N2. Following equilibration, P. gingivalis was inoculated in the medium and grown for 48 h at 37 °C under anaerobic conditions. S. gordonii DL-1 (1) was cultured aerobically without shaking in brain heart infusion (BHI) broth supplemented with 1 percent yeast extract for 16 hours at 37 °C. For some compounds that inhibited P. gingivalis adherence to S. gordonii, we determined their effect on planktonic growth of P. gingivalis and S. gordonii. The appropriate growth medium (10 ml) was supplemented with 10 μl of a 40 mM compound stock solution in DMSO. After inoculation, broth cultures were incubated as described above and compared to cultures grown in medium that was supplemented only with 0.1% DMSO. The cell density of each culture was determined by measuring the optical density at 600 nm (O.D.600nm) and the percent growth inhibition/stimulation was calculated using the following equation: [(O.D.600nm of the control/O.D.600nm of the culture grown in the presence of compound) – 1] × 100.
Two species biofilms were formed essentially as previously described.[39] To prepare bacterial cells for biofilm culture, 10 ml of an overnight S. gordonii culture was centrifuged at 5600 rpm for 5 min and the cell pellet was suspended in 1 mL sterile PBS. Subsequently, 20 μL of 5 mg ml^–1 hexidium iodide (Molecular Probes) was added to the cell suspension and incubated for 15 min with gentle shaking at room temperature in the dark. The labeled cells were centrifuged as described above, washed with phosphate-buffered saline (10 mM Na2HPO4, […], […], and 2.7 mM KCl, pH 7.2; [PBS]) and the cell pellet was suspended in PBS at a final O.D.600nm of 0.8. Similarly, 10 mL of a 48 h culture of P. gingivalis was centrifuged at 5600 rpm for 15 min, the cell pellet was suspended in 1 mL PBS and 20 μL of 5(6)-carboxyfluorescein N-hydroxysuccinimide ester (4 mg ml^–1, Molecular Probes, Inc.) was added. After incubation for 30 min with gentle shaking at room temperature in the dark, the suspension was centrifuged and washed as described above and suspended in PBS at a final O.D.600nm of 0.4. For biofilm cultures, 1 mL of labeled S. gordonii cells was added to each well of a 12-well microtiter plate (Greiner Bio-one) containing a circular coverslip (Fisher brand) and incubated in an anaerobic chamber with rotary shaking for 24 h at 37 °C. Unbound cells were removed by aspiration and 1 ml of labeled P. gingivalis cells containing the desired concentration of test compound was added and incubated under anaerobic conditions for 22 h at 37 °C. Test compounds were dissolved in dimethyl sulfoxide (DMSO) to generate 1000× stock solutions and were routinely tested over a final concentration range of 0–60 μM. 1 μL of the appropriate stock solution was added to each 1 mL aliquot of labeled P. gingivalis cells and incubated for 30 min at room temperature prior to adding the suspension to the microtiter plate wells. For control biofilms, 1 μL of DMSO was added to 1 mL of labeled P. gingivalis and incubated as described above.
To visualize P. gingivalis/S. gordonii biofilms, unbound P. gingivalis cells were removed by aspiration and coverslips were washed once with PBS. Biofilms were fixed by incubating the coverslips with 1 mL of 4% paraformaldehyde for 5 min followed by two washes with PBS. The coverslips were then removed, placed face down on a glass microscope slide containing a drop of antifade reagent (Life Technology) and sealed with nail polish. […]

[2] = test system: P. gingivalis; experiment: Planktonic growth of P. gingivalis (O.D.600nm); assay type: cell-based, P. gingivalis ATCC33277; conditions: Porphyromonas gingivalis, read-out: Percent inhibition of: P. gingivalis (planktonic growth); for inhibition at 40 µM: 40 μM compound, cultures incubated overnight, vs 0.1% DMSO
Experimental: as §1

[3] = test system: S. gordonii; experiment: Planktonic growth of S. gordonii (O.D.600nm); assay type: cell-based, S. gordonii DL-1; conditions: Streptococcus gordonii, read-out: Percent inhibition of: S. gordonii (planktonic growth); for inhibition at 40 µM: 40 μM compound, cultures incubated overnight, vs 0.1% DMSO
Experimental: as §1

Row | Compound | IC50 [1] | other results
1 | COc1ccccc1-c1cn(-c2ccc(S(=O)(=O)Cc3nc(-c4ccc(F)cc4)c(-c4ccc(F)cc4)o3)cc2)nn1 [Compound 54] | 21.2 µM | inhibition at 40 µM [2]: -3.4%; inhibition at 40 µM [3]: -3.3%
2 | Fc1ccc(-c2nc(-c3cccc(-n4cc(-c5nc(Nc6ccccc6F)nc(Nc6ccccc6F)n5)nn4)c3)oc2-c2ccc(F)cc2)cc1 [Compound 102] | 5 µM | inhibition at 40 µM [2]: -8.3%; inhibition at 40 µM [3]: -0.6%
3 | CN(C)[C@@H]1C(O)=C(C(N)=O)C(=O)[C@@]2(O)C(O)=C3C(=O)c4c(O)cccc4[C@@](C)(O)[C@H]3C[C@@H]12 [Tet, tetracycline, reference compound] |  | inhibition at 10 µg/mL ([2]; 10 μg ml^–1 tetracycline): 95.7 ± 1.2%; inhibition at 10 µg/mL ([3]; 10 μg ml^–1 tetracycline): 94.2 ± 1.7%
4 | Fc1ccc(Nc2nc(Nc3ccc(F)cc3)nc(-c3cn(-c4ccc(-c5nc(-c6ccc(Cl)cc6)c(-c6ccc(Cl)cc6)o5)cc4)nn3)n2)cc1 [Compound 118] | 13.3 µM | 
5 | [O-][S+](Cc1nc(-c2ccccc2)c(-c2ccccc2)o1)c1ccc(-n2cc(-c3cc(C(F)(F)F)cc(C(F)(F)F)c3)nn2)cc1 (stereo not drawn) [Compound 36] | > 60 µM | 
6 | O=S(=O)(Cc1nc(-c2ccccc2)c(-c2ccccc2)o1)c1ccc(-n2cc(-c3cccc(F)c3)nn2)cc1 [Compound 39] | 33.6 µM | 
7 | O=S(=O)(Cc1nc(-c2ccccc2)c(-c2ccccc2)o1)c1ccc(-n2cc(-c3cc(C(F)(F)F)cc(C(F)(F)F)c3)nn2)cc1 [Compound 45] | 38.5 µM | 
8 | Fc1ccccc1Nc1nc(Nc2ccccc2F)nc(-c2cn(-c3cccc(-c4nc(-c5ccc(Cl)cc5)c(-c5ccc(Cl)cc5)o4)c3)nn2)n1 [Compound 104] | 33.8 µM | 
9 | COc1ccc2cc(-c3cn(-c4ccc([S+]([O-])Cc5nc(-c6ccccc6)c(-c6ccccc6)o5)cc4)nn3)ccc2c1 (stereo not drawn) [Compound 33] | > 60 µM | 
10 | O=S(=O)(Cc1nc(-c2ccc(F)cc2)c(-c2ccc(F)cc2)o1)c1ccc(-n2cc(-c3cccc(F)c3)nn2)cc1 [Compound 52] | 40 µM | 
11 | Fc1ccc(Nc2nc(Nc3ccc(F)cc3)nc(-c3cn(-c4ccccc4-c4nc(-c5ccc(Cl)cc5)c(-c5ccc(Cl)cc5)o4)nn3)n2)cc1 [Compound 116] | > 40 µM | 
12 | COc1ccc2cc(-c3cn(-c4ccc(S(=O)(=O)Cc5nc(-c6ccccc6)c(-c6ccccc6)o5)cc4)nn3)ccc2c1 [Compound 42] | > 60 µM | 
13 | Fc1ccccc1Nc1nc(Nc2ccccc2F)nc(-c2cn(-c3cccc(-c4nc(-c5ccco5)c(-c5ccco5)o4)c3)nn2)n1 [Compound 108] | > 60 µM | 
14 | CCN(CC)c1nc(-c2cn(-c3cccc(-c4nc(-c5ccco5)c(-c5ccco5)o4)c3)nn2)nc(N(CC)CC)n1 [Compound 98] | > 60 µM | 
15 | [O-][S+](Cc1nc(-c2ccc(F)cc2)c(-c2ccc(F)cc2)o1)c1ccc(-n2cc(-c3cccc(F)c3)nn2)cc1 (stereo not drawn) [Compound 46] | 5.3 µM | 
16 | COc1ccc(-c2nc(-c3cccc(-n4cc(-c5nc(Nc6ccc(F)cc6)nc(Nc6ccc(F)cc6)n5)nn4)c3)oc2-c2ccc(OC)cc2)cc1 [Compound 120] | > 60 µM | 
17 | CCN(CC)c1nc(-c2cn(-c3cccc(-c4nc(-c5ccc(F)cc5)c(-c5ccc(F)cc5)o4)c3)nn2)nc(N(CC)CC)n1 [Compound 92] | > 60 µM | 
18 | COc1ccc(-c2nc(-c3ccc(-n4cc(-c5nc(Nc6ccc(F)cc6)nc(Nc6ccc(F)cc6)n5)nn4)cc3)oc2-c2ccc(OC)cc2)cc1 [Compound 121] | > 60 µM | 
19 | O=S(=O)(Cc1nc(-c2ccc(Cl)cc2)c(-c2ccc(Cl)cc2)o1)c1ccc(-n2cc(-c3ccc(F)cc3)nn2)cc1 [Compound 56] | 6.3 µM | inhibition at 40 µM [2]: -2.7%; inhibition at 40 µM [3]: 6.2 ± 8.8%

Row | Compound | IC50 [1] | other results
20 | O=S(=O)(Cc1nc(-c2ccc(F)cc2)c(-c2ccc(F)cc2)o1)c1ccc(-n2cc(-c3ccc(F)cc3)nn2)cc1 [Compound 53] | 40 µM | 
21 | Fc1ccc(-c2nc(-c3ccc(-n4cc(-c5nc(Nc6ccccc6F)nc(Nc6ccccc6F)n5)nn4)cc3)oc2-c2ccc(F)cc2)cc1 [Compound 103] | 12.3 µM | inhibition at 40 µM [2]: -1.3%; inhibition at 40 µM [3]: -8.6%
22 | CCN(CC)c1nc(-c2cn(-c3ccc(-c4nc(-c5ccc(F)cc5)c(-c5ccc(F)cc5)o4)cc3)nn2)nc(N(CC)CC)n1 [Compound 93] | 9.4 µM | inhibition at 40 µM [2]: 2 ± 6.1%; inhibition at 40 µM [3]: -2%
23 | [O-][S+](Cc1nc(-c2ccc(Cl)cc2)c(-c2ccc(Cl)cc2)o1)c1ccc(-n2cc(-c3cccc(F)c3)nn2)cc1 (stereo not drawn) [Compound 49] | 15.1 µM | 
24 | O=S(=O)(Cc1nc(-c2ccccc2)c(-c2ccccc2)o1)c1ccc(-n2cc(-c3ccc(F)cc3)nn2)cc1 [Compound 38] | 15.7 µM | 
25 | CCN(CC)c1nc(-c2cn(-c3cccc(-c4nc(-c5ccc(Cl)cc5)c(-c5ccc(Cl)cc5)o4)c3)nn2)nc(N(CC)CC)n1 [Compound 94] | 16 µM | 
26 | [O-][S+](Cc1nc(-c2ccccc2)c(-c2ccccc2)o1)c1ccc(-n2cc(-c3cccnc3)nn2)cc1 (stereo not drawn) [Compound 28, 4,5-Diphenyl-2-(((4-(4-(pyridin-3-yl)-1H-1,2,3-triazol-1-yl)phenyl)sulfinyl)methyl) oxazole] | > 60 µM | 
27 | [O-][S+](Cc1nc(-c2ccc(F)cc2)c(-c2ccc(F)cc2)o1)c1ccc(-n2cc(-c3ccc(F)cc3)nn2)cc1 (stereo not drawn) [Compound 47] | 35.9 µM | 
28 | O=S(=O)(Cc1nc(-c2ccccc2)c(-c2ccccc2)o1)c1ccc(-n2cc(-c3cccnc3)nn2)cc1 [Compound 37] | > 60 µM | 
29 | Fc1ccc(Nc2nc(Nc3ccc(F)cc3)nc(-c3cn(-c4cccc(-c5nc(-c6ccc(Cl)cc6)c(-c6ccc(Cl)cc6)o5)c4)nn3)n2)cc1 [Compound 117] | 27.8 µM | 
30 | Fc1ccccc1Nc1nc(Nc2ccccc2F)nc(-c2cn(-c3ccc(-c4nc(-c5ccc(Cl)cc5)c(-c5ccc(Cl)cc5)o4)cc3)nn2)n1 [Compound 105] | > 60 µM | 
31 | CCCCCc1ccc(-c2cn(-c3ccc([S+]([O-])Cc4nc(-c5ccccc5)c(-c5ccccc5)o4)cc3)nn2)cc1 (stereo not drawn) [Compound 34] | > 60 µM | 
32 | CCN(CC)c1nc(-c2cn(-c3cccc(-c4nc(-c5ccc(OC)cc5)c(-c5ccc(OC)cc5)o4)c3)nn2)nc(N(CC)CC)n1 [Compound 96] | > 60 µM | 
33 | O=S(=O)(Cc1nc(-c2ccccc2)c(-c2ccccc2)o1)c1ccc(-n2cc(-c3ccccc3C(F)(F)F)nn2)cc1 [Compound 41] | > 60 µM | 
34 | [O-][S+](Cc1nc(-c2ccccc2)c(-c2ccccc2)o1)c1ccc(-n2cc(-c3ccccc3C(F)(F)F)nn2)cc1 (stereo not drawn) [Compound 32] | > 60 µM | 
35 | COc1ccc(-c2nc(-c3ccc(-n4cc(-c5nc(Nc6ccccc6F)nc(Nc6ccccc6F)n5)nn4)cc3)oc2-c2ccc(OC)cc2)cc1 [Compound 107] | 40 µM | 
36 | O=S(=O)(Cc1nc(-c2ccccc2)c(-c2ccccc2)o1)c1ccc(-n2cc(-c3ccc(Oc4ccccc4)cc3)nn2)cc1 [Compound 44] | 16.5 µM | 
37 | [O-][S+](Cc1nc(-c2ccccc2)c(-c2ccccc2)o1)c1ccc(-n2cc(-c3cccc(F)c3)nn2)cc1 (stereo not drawn) [Compound 30] | 47.3 µM | 
